From the METLIN SMRT retention time set (Domingo-Almenara et al. 2019)

Test: gradient 5% acetonitrile 3 min, to 50% in 2 min, to 85% in 15 min, held 3 min, 100 µL/min
Settings: column: Zorbax Extend-C18 2.1 x 50 mm; eluents: water / acetonitrile, 0.1% formic acid
Outline: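 Pure standards were analyzed in mixtures of ~100 molecules using HPLC coupled to a quadrupole time-of-flight mass spectrometer, in both positive and negative ionization mode. Separation used a Zorbax Extend-C18 column (2.1 × 50 mm, 1.8 μm) at 100 μL/min, with water and acetonitrile each containing 0.1% formic acid. Dead and dwell volumes were 40 μL and 900 μL, and data were collected over 3 months. Retention time was read from computationally picked adduct peaks, each inspected manually.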

| SMILES | RP-LC retention time [s] |
| --- | --- |
| COc1ccc(NC(=O)CN2C(=O)C(C)(C)c3ccccc32)c(OC)c1 | 869 |
| COc1ccc(OC)c(NC(=O)c2cnn(-c3ccc(Cl)cc3)c2)c1 | 991 |
| CC(C)NC(=O)CC1CCN(C(=O)c2cc3cc(Cl)ccc3[nH]2)CC1 | 773 |
| COc1ccc(NS(=O)(=O)c2cc(-c3[nH]ncc3C(=O)N3CCCC3)oc2C)cc1 | 676 |
| CC(C)NC(=O)c1ccc(OCC2CCN(C(=O)c3ccccc3Cl)CC2)cc1 | 820 |
| O=C(O)c1cc(-c2ccc(F)cc2)nc2ccccc12 | 884 |
| CCSc1nnc(NC(=O)c2cc(=O)c(OCc3ccc(F)cc3)co2)s1 | 791 |
| Cc1ccccc1NC(=O)C1C(=O)N(C)C2(C)CC1c1ccccc1O2 (stereo unspecified) | 991 |
| COc1cccc(N2C(=O)CC(N3CCC(C(N)=O)CC3)C2=O)c1 (stereo unspecified) | 585 |
| CC1(COc2ccc3c(c2)ncn3-c2ccc3cccc(N4CCC(N)CC4)c3n2)COC1 | 667 |
| CCNC(=O)c1nc(C(=O)NCc2ccc(F)c(Cl)c2)cs1 | 819 |
| COc1cccc(CNC(=O)C2CCN(C(=O)C3Sc4ccccc4NC3=O)CC2)c1 (stereo unspecified) | 725 |
| CC1CCCN(C(=O)c2nc(-c3ccnc(N4CCCC4)c3)no2)C1 (stereo unspecified) | 682 |
| CC(C)(C)c1ccc(C(=O)Nc2nc3ccccc3[nH]2)cc1 | 778 |
| Cc1ccc(-c2noc(-c3nc(Cc4ccccc4)no3)n2)cc1 | 1240 |
| O=C(O)c1cccnc1SC1CC(=O)N(c2ccc(F)c(Cl)c2)C1=O (stereo unspecified) | 741 |
| COc1ccc(-c2cc3c(=O)n(Cc4ccccc4)ccn3n2)cc1OC | 906 |
| CCOc1ccc(C(C)NC(=O)c2cn3nc(OCC)ccc3n2)cc1 (stereo unspecified) | 935 |
| COc1cccc2cc(-c3ccc(OCC(=O)N4CCC(C(N)=O)CC4)cc3)c(=O)oc12 | 672 |
| CCN1CCn2cc(C(=O)NCc3cccc(Br)c3)nc2C1 | 600 |
| Fc1ccc(F)c(CNc2nnc(-c3nc(C4CC4)no3)c3ccccc23)c1 | 672 |
| COc1ccc(S(=O)(=O)N2CC=C(c3cn(C)c4ncccc34)CC2)cc1Cl | 1010 |
| Cc1ccc(-c2cc(C(F)(F)F)on2)cc1S(=O)(=O)N1CCN(c2ccccn2)CC1 | 868 |

| SMILES | RP-LC retention time [s] |
| --- | --- |
| CN1c2cc(Cl)ccc2C(=O)NC12CCN(C(=O)Nc1cccc(F)c1)CC2 | 831 |
| Cn1nc(-c2ccc(F)cc2)cc1C(=O)NCCN1CCN(C(=O)c2cccs2)CC1 | 593 |
| CCOC(=O)c1nc(NCc2ccc(CC)cc2)c2ccccc2n1 | 869 |
| Cc1ccccc1OCC(=O)N1CCN(C2=CC3=NCC(C)N3C=N2)CC1 (stereo unspecified) | 644 |
| CCS(=O)(=O)c1nc2ccc(NS(=O)(=O)c3ccc(OC)cc3)cc2s1 | 833 |
| CC(C(=O)NCc1ccco1)C1CCN(C(=O)c2cc3cc(Cl)ccc3[nH]2)CC1 (stereo unspecified) | 841 |
| CCN(C(=O)c1cc2c(s1)N(CC1CC1)CCCC2)C(C)C | 1260 |
| Cc1ccc(Sc2nccnc2N2CCCC(C(=O)NCc3ccc(F)cc3)C2)cc1 (stereo unspecified) | 1100 |
| COc1cccc(NC(=O)Cn2c(N)nc(C)cc2=O)c1 | 581 |
| CCCC(NC(=O)Cc1ccccc1F)C(=O)Nc1nc2ccccc2[nH]1 (stereo unspecified) | 694 |
| CCC(C)NC(=O)Cn1cnc2nc(N3CCCC(C(=O)NC)C3)sc2c1=O (stereo unspecified) | 608 |
| COc1ccc(-c2ccc(=O)n(Cc3nc(-c4cccc(Cl)c4)no3)n2)cc1 | 1080 |
| O=C(NCCC1=CCCCC1)C1CCN(c2ncccc2-c2nc(-c3ccc(Cl)cc3)no2)CC1 | 1330 |
| CCC(C)NC(=O)C1c2ccccc2CC(=O)N1C (stereo unspecified) | 658 |
| O=c1n(CC2CC2)c2cccnc2n1[C@H]1CCCN(S(=O)(=O)c2cccnc2)C1 | 835 |
| O=C(NCC1CCCCC1)C1CCN(C(=O)c2ncn3c2COC(c2ccc(F)cc2)C3)CC1 (stereo unspecified) | 846 |
| Cc1cccc(Nc2ncccc2S(N)(=O)=O)c1 | 811 |
| Cc1cc(-c2nnc(-c3ccco3)o2)c(C)n1CC(=O)Nc1cccc(Cl)c1 | 920 |
| CCOC(=O)c1ccc(Nc2c(-c3ccc(N(C)C)cc3)nc3cnccn23)cc1 | 827 |
| Cc1ccc(C2CN(S(=O)(=O)c3ccccc3)CCN2C)cc1 (stereo unspecified) | 603 |
| CCC(=O)Nc1ccc(CCc2nc3ccc(C(=O)NCc4ccc5c(c4)OCO5)cc3[nH]2)cc1 | 644 |
| COc1ccc(Cl)cc1NC(=O)NCCc1ccc(N(C)C)cc1 | 637 |
| C[C@@H]1CN(CCCn2c3ccccc3c3ccccc32)C[C@H](C)N1 | 712 |

| SMILES | RP-LC retention time [s] |
| --- | --- |
| Cn1cc(-c2cc3n(n2)CCC(=O)N3CCCC(=O)NCc2ccc3c(c2)OCO3)c2ccccc21 | 795 |
| Cc1cc([N+](=O)[O-])ccc1Nc1cccc(Cl)c1C | 1030 |
| CCOC(=O)c1ccc(NC(=O)NCc2ccccc2)cc1 | 817 |
| COc1cccc(N2CCN(CC(O)c3ccc(C)cc3)CC2)c1 (stereo unspecified) | 677 |
| c1ccc2c(c1)CCC[C@H]2Nc1nc2ccccc2[nH]1 | 705 |
| COCCN1CCC2(CC1)CN(Cc1ccc(C(C)C)cc1)Cc1ccccc1O2 | 667 |
| Cc1cc(Nc2ccc(NC(=O)c3ccc4c(c3)OCO4)cc2)nc(N2CCOCC2)n1 | 656 |
| COc1cc(OC)c(NC(=O)C2CCN(S(=O)(=O)c3cn(C(C)C)cn3)CC2)cc1Cl | 814 |
| Cc1cc(C(=O)NC2CCCC2)nc2cc(-c3cccs3)nn12 | 655 |
| CC(C)N1C(=O)Cc2ccccc2C1C(=O)NCc1cccs1 (stereo unspecified) | 750 |
| O=C(Cn1cccc1-c1nnc(C2CCC2)o1)NCCc1ccc(Cl)cc1 | 766 |
| CCC1Oc2ccc(S(=O)(=O)N3CCC(C(=O)Nc4ccccc4C)CC3)cc2NC1=O (stereo unspecified) | 814 |
| Cn1c(C(N)=O)c(N2CCCC2=O)c2cc(F)ccc21 | 669 |
| CS(=O)(=O)Nc1ccc(-c2noc(-c3cncc(Br)c3)n2)cc1 | 877 |
| COc1ccc(C2(C(=O)N3CCC(c4noc(-c5cccc(OC)c5)n4)CC3)CC2)cc1 | 1040 |
| Cc1csc(NC(=O)c2ccc(N3CCCC3)nn2)n1 | 626 |
| Cn1cc(C(=O)NC2CCCCC2)c2cccnc21 | 726 |
| CCOC(=O)c1cc(S(=O)(=O)N2CCCC2C(=O)N(CC)c2ccc(OC)cc2)cn1C (stereo unspecified) | 892 |
| CC(=O)c1ccc(NC(=O)c2cnc(-c3ccc(F)cc3)nc2-c2ccncc2)cc1 | 837 |
| CC1CCN(CCNC(=O)c2nnc(-c3ccc(S(=O)(=O)N4CCCC4)cc3)o2)CC1 | 634 |
| Cc1cccc(NC(=O)NCC(O)Cc2ccccc2)c1 (stereo unspecified) | 734 |
| O=C1OCC/C1=C\c1ccc(O)cc1 | 711 |
| CC(C)c1noc(-c2ccn3c(CC(=O)NC4CCCCC4)nnc3c2)n1 | 760 |

| SMILES | RP-LC retention time [s] |
| --- | --- |
| CCOC(=O)c1sc(NC(=O)c2cc(C)n(C)n2)nc1-c1ccccc1 | 928 |
| CC(NC(=O)C1c2ccccc2CCN1C(=O)C1CC1)c1ccc(F)cc1 (stereo unspecified) | 875 |
| COc1ccc(-c2nc(-c3cn(-c4ccc(F)cc4)nn3)no2)c(OC)c1 | 974 |
| Cc1cc(C)c2c(N3CCSCC3)nc(C(=O)NCCCN3CCCC3)nc2n1 | 552 |
| COc1cccc(C2Cn3nnc(-c4nc(-c5cccc(Cl)c5)no4)c3CO2)c1 (stereo unspecified) | 1250 |
| O=C1COc2cc(Cl)ccc2N1Cc1nc(-c2cccc(F)c2)no1 | 1100 |
| COc1cc(-c2nc3ncccn3c2Nc2ccc(C)cc2C)ccc1O | 682 |
| CS(=O)(=O)c1nc2ccc(NS(=O)(=O)c3ccc4c(c3)CCC4)cc2s1 | 987 |
| CN(Cc1ccc(F)cc1Cl)C1CCc2nnc(C3CCOCC3)n2CC1 (stereo unspecified) | 561 |
| CCc1ccc(C(=O)N2CCC(c3nc4ccncc4n3C(C)C)C2)cc1 (stereo unspecified) | 572 |
| CC(C)n1cc2cc(C(=O)N(C)CCc3ccncc3)sc2c1 | 709 |
| CCc1ccc(-n2cc(C(=O)O)nn2)cc1 | 727 |
| CCNC(=O)N1CC(C)Oc2ccccc21 (stereo unspecified) | 762 |
| Cc1ccc(-c2nc3cnccn3c2Nc2ccc(F)cc2)cc1 | 904 |
| O=C(COc1cccc(C(F)(F)F)c1)NCCCn1nc(-c2ccncc2)ccc1=O | 601 |
| O=C(Cc1csc(-c2ccccc2F)n1)NCCc1c[nH]c2ccc(F)cc12 | 908 |
| CCn1cc(C)c(C(=O)O)c1CC(=O)NCCN1CCOCC1 | 582 |
| O=C1[C@H]2CN(Cc3ccc(Cl)cc3)C[C@H]2C(=O)N1CCc1ccccc1 | 749 |
| CNC(=O)CN(C)C(=O)c1cc2c(s1)N(C)CCCC2 | 686 |
| COc1ccc(OCC(=O)N2CCc3c(c(C(=O)N4CCCC(C(=O)NC5CC5)C4)nn3C)C2)cc1 (stereo unspecified) | 657 |
| COC[C@@H]1CN(C(=O)c2ccoc2C)C[C@H]1c1nc(C2CC2)no1 | 574 |
| Cc1ccc(CNC(=O)C2Cn3cccc3C(=O)N2)o1 (stereo unspecified) | 633 |
